For experiment [1], the target named is T1, human LXRα (Homo sapiens, UniProt Q13133).
T1 construct: biotin (biotinylated); made in house; host or cells: E. coli
T1 sequence (Q13133 1-447): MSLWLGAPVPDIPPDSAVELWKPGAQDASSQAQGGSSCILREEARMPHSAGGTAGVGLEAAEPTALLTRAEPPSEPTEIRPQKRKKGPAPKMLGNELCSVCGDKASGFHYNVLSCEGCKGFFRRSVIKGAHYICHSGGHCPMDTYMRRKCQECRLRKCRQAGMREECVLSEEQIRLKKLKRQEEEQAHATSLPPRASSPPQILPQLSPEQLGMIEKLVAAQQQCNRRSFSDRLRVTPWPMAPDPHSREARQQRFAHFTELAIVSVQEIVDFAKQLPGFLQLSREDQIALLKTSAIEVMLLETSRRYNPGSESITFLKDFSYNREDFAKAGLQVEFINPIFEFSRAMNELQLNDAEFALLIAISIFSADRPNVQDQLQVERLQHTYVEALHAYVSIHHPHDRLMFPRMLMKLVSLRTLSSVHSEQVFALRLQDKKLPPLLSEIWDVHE
Description: Ligand-binding test procedure for human LXRα (3H T0901317 tracer, flash plates). To be noted: biotinylated hLXRα, tracer 3H T0901317, +4° C. over night. Here is the method: II. Ligand-Binding Test Procedure for Human LXRα.
Receptor source: E. coli extract from cells expressing biotinylated hLXRα. Extract was made in a similar buffer as above, but with 50 mM TRIS.
Washed streptavidin and coated flash plates with wash buffer. Diluted receptor extract to give Bmax˜4000 cpm and add to the wells. Wrapped the plates in aluminum foil and stored them at +4° C. over night.
(§1) Made a dilution series in DMSO of the test ligands. Made a 5 nM solution of the radioactive tracer in buffer. Mixed 250 μl diluted tracer with 5 μl of the test ligand from each concentration of the dilution series. Washed the receptor-coated flash plates. Added 200 μl per well of the ligand/radiolabel mixture to the receptor-coated flash plates. Wrapped the plates in aluminum foil and incubate at +4° C. over night.
Aspirated wells, and wash the flashed plates. Sealed the plate. Measured the remaining radioactivity in the plate.

Experiment [2] addresses T2, human LXRβ (Homo sapiens, UniProt P55055).
T2 construct: biotin (biotinylated); made in house; host or cells: E. coli
T2 sequence (P55055 1-460): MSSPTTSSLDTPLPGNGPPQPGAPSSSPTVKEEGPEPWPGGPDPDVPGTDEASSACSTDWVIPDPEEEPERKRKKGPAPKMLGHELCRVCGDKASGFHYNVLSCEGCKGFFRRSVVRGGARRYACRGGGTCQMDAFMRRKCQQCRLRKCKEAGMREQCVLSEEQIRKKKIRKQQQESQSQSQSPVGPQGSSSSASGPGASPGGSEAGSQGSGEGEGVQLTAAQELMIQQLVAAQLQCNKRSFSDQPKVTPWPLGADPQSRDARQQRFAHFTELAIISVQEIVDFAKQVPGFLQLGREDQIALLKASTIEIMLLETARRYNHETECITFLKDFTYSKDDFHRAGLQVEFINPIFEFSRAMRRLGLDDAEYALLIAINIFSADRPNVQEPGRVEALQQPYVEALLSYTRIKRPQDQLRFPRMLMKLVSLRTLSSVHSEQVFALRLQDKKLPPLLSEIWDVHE
The experiment can be described thus: Ligand-binding test procedure for human LXRβ (3H T0901317 tracer, flash plates). The following applies: biotinylated hLXRβ, tracer 3H T0901317, +4° C. over night. Here is the method: I. Ligand-Binding Test Procedure for Human LXRβ.
Receptor source: E. coli extracted from cells expressing biotinylated hLXRβ. Extract was made in a similar buffer as above, but with 50 mM TRIS.
Washed streptavidin and coated flash plates with wash buffer. Diluted receptor extract to give Bmax˜4000 cpm and add to the wells. Wrapped the plates in aluminum foil and stored them at +4° C. overnight.
as §1
Aspirated wells, and washed the flashed plates. Sealed the plate.
Measured the remaining radioactivity in the plate.

The source of these data is patent publication US20100120778A1, “QUINOXALINE-BASED LXR MODULATORS” (Wyeth, priority 2008, published 2010).

As a reminder, the pIC50 is the IC50 on a negative log10 scale, so that one unit is a factor of ten. Higher therefore signals a low IC50.

pIC50: −log10 of the molar value.

Consider `Cc1nc2c(C(F)(F)F)cccc2nc1-c1cccc(Oc2cccc(S(C)(=O)=O)c2)c1` [Example 2, 3-methyl-2-{3-[3-(methylsulfonyl)phenoxy]phenyl}-5-(trifluoromethyl)quinoxaline], for which the pIC50 in experiment [1] was 5.99; in experiment [2], 6.90. With `Cc1nc2cccc(C(F)(F)F)c2nc1-c1cccc(Oc2cccc(S(C)(=O)=O)c2)c1` [Example 3, 2-methyl-3-{3-[3-(methylsulfonyl)phenoxy]phenyl}-5-(trifluoromethyl)quinoxaline], the pIC50 in experiment [1] is 5.89; in experiment [2], 6.60. The matching figures for `Cc1nc2cccc(C(F)(F)F)c2nc1-c1ccc(-c2cccc(S(C)(=O)=O)c2)cc1` [Example 4, 2-methyl-3-[3′-(methylsulfonyl)biphenyl-4-yl]-5-(trifluoromethyl)quinoxaline]: under 6.00 and 6.43. Regarding `Cc1nc2c(Cl)cccc2nc1-c1cccc(Oc2cccc(S(C)(=O)=O)c2)c1` [Example 5, 5-chloro-3-methyl-2-{3-[3-(methylsulfonyl)phenoxy]phenyl}quinoxaline], the pIC50 in experiment [1] was under 6.00; in experiment [2] it was 6.41. For the compound `Cc1nc2cccc(C(F)(F)F)c2nc1-c1ccc(-c2cccc(S(C)(=O)=O)c2)cc1F` [Example 6, 3-[3-fluoro-3′-(methylsulfonyl)biphenyl-4-yl]-2-methyl-5-(trifluoromethyl)quinoxaline], the pIC50 was under 6.00 in experiment [1] and 6.40 in experiment [2]. Regarding `Cc1nc2cccc(C(F)(F)F)c2nc1-c1ccc(Oc2cccc(S(C)(=O)=O)c2)cc1` [Example 7, 2-methyl-3-{4-[3-(methylsulfonyl)phenoxy]phenyl}-5-(trifluoromethyl)quinoxaline], the pIC50 in experiment [1] was under 6.00; in experiment [2], 5.81. For `CS(=O)(=O)c1cccc(Oc2cccc(-c3cnc4c(Cl)cccc4n3)c2)c1` [Example 8, 5-chloro-2-{3-[3-(methylsulfonyl)phenoxy]phenyl}quinoxaline] the same measures were under 6.00 and 5.78. Take `CS(=O)(=O)c1cccc(Oc2cccc(-c3cnc4cccc(C(F)(F)F)c4n3)c2)c1` [Example 9, 2-{3-[3-(methylsulfonyl)phenoxy]phenyl}-8-(trifluoromethyl)quinoxaline]: the pIC50 in experiment [1] is under 6.00; in experiment [2], 5.71.

Consider `Cc1nc2cccc(Cl)c2nc1-c1cccc(Oc2cccc(S(C)(=O)=O)c2)c1` [Example 10, 5-chloro-2-methyl-3-{3-[3-(methylsulfonyl)phenoxy]phenyl}quinoxaline], for which the results for the pIC50 in experiment [1] and in experiment [2] were under 6.00 and 5.66, respectively.

`O=S(=O)(CCCO)c1cccc(Oc2cccc(-c3cnc4cccc(C(F)(F)F)c4n3)c2)c1` [Example 11, 3-[(3-{3-[8-(trifluoromethyl)quinoxalin-2-yl]phenoxy}phenyl)sulfonyl]propan-1-ol]: the pIC50 in experiment [1] is under 6.00; in experiment [2], 5.60. Turning to `Cc1nc2c(C(F)(F)F)cccc2nc1-c1ccc(Oc2cccc(S(C)(=O)=O)c2)cc1` [Example 12, 3-methyl-2-{4-[3-(methylsulfonyl)phenoxy]phenyl}-5-(trifluoromethyl)quinoxaline], the values for the pIC50 in experiment [1] and in experiment [2] were under 6.00 and 5.19, respectively.

In the case of `Cc1nc2c(C(F)(F)F)cccc2nc1-c1cc(Oc2cccc(S(C)(=O)=O)c2)ccc1Cl` [Example 36, 2-{2-chloro-5-[3-(methylsulfonyl)phenoxy]phenyl}-3-methyl-5-(trifluoromethyl)quinoxaline], the pIC50 in experiment [1] was 6.53; in experiment [2] it was 7.71. For `Cc1nc2cccc(C(F)(F)F)c2nc1-c1cc(Oc2cccc(S(C)(=O)=O)c2)ccc1Cl` [Example 37, 3-{2-chloro-5-[3-(methylsulfonyl)phenoxy]phenyl}-2-methyl-5-(trifluoromethyl)quinoxaline] the same measures were 6.25 and 7.43. Consider `Cc1nc2c(C(F)(F)F)cccc2nc1-c1cc(Oc2ccc(S(C)(=O)=O)cc2)ccc1Cl` [Example 42, 2-{2-chloro-5-[4-(methylsulfonyl)phenoxy]phenyl}-3-methyl-5-(trifluoromethyl)quinoxaline], for which the pIC50 in experiment [1] is 5.72; in experiment [2], 6.13. For the compound `Cc1nc2c(C(F)(F)F)cccc2nc1-c1cc(Oc2ccccc2S(C)(=O)=O)ccc1Cl` [Example 46, 2-{2-chloro-5-[2-(methylsulfonyl)phenoxy]phenyl}-3-methyl-5-(trifluoromethyl)quinoxaline], the pIC50 in experiment [1] is 5.79; in experiment [2], 5.84.

Consider `Cc1nc2c(C(F)(F)F)cccc2nc1-c1ccc(-c2ccc(CCC(=O)O)cc2)cc1` [Example 55, 3-{4′-[3-methyl-5-(trifluoromethyl)quinoxalin-2-yl]biphenyl-4-yl}propanoic acid], for which the negative-log IC50 (pIC50) in experiment [2] was under 6.00.

Compound `COc1cccc2nc(C)c(-c3ccc(-c4cccc(S(C)(=O)=O)c4)cc3)nc12` [Example 69, 5-methoxy-2-methyl-3-[3′-(methylsulfonyl)biphenyl-4-yl]quinoxaline] had a pIC50 in experiment [2] of under 6.00.

`COc1cccc2nc(-c3ccc(-c4cccc(S(C)(=O)=O)c4)cc3)c(C)nc12` [Example 70, 5-methoxy-3-methyl-2-[3′-(methylsulfonyl)biphenyl-4-yl]quinoxaline] gave a pIC50 in experiment [1] of under 6.00.

In experiment [1], `Cc1nc2c(C#N)cccc2nc1-c1ccc(-c2cccc(S(C)(=O)=O)c2)cc1` [Example 71, 3-methyl-2-[3′-(methylsulfonyl)biphenyl-4-yl]quinoxaline-5-carbonitrile] had a negative-log IC50 (pIC50) of under 6.00. For `CNS(=O)(=O)c1cccc(-c2cccc(Oc3cnc4c(Cl)cccc4n3)c2)c1` [Example 84, 3′-[(5-Chloroquinoxalin-2-yl)oxy]-N-methylbiphenyl-3-sulfonamide], in experiment [2], the negative-log IC50 (pIC50) was 6.19.

The compound `CS(=O)(=O)Nc1cccc(-c2cccc(Oc3cnc4c(Cl)cccc4n3)c2)c1` [Example 85, N-{3′-[(5-Chloroquinoxalin-2-yl)oxy]biphenyl-3-yl}methanesulfonamide] had a pIC50 in experiment [2] of 6.59. `CNS(=O)(=O)c1cccc(-c2ccc(Oc3cnc4c(Cl)cccc4n3)cc2)c1` [Example 86, 4′-[(5-Chloroquinoxalin-2-yl)oxy]-N-methylbiphenyl-3-sulfonamide] gave a pIC50 in experiment [2] of under 6.00. On the same count and under the same terms, as for `CS(=O)(=O)Nc1cccc(-c2ccc(Oc3cnc4c(Cl)cccc4n3)cc2)c1` [Example 87, N-{4′-[(5-chloroquinoxalin-2-yl)oxy]biphenyl-3-yl}methanesulfonamide], the figure is under 6.00; as for `CNS(=O)(=O)c1cccc(-c2cccc(Oc3nc4cccc(Cl)c4nc3C)c2)c1` [Example 88, 3′-[(5-chloro-3-methylquinoxalin-2-yl)oxy]-N-methylbiphenyl-3-sulfonamide], under 6.00; as for `Cc1nc2c(Cl)cccc2nc1Oc1cccc(-c2cccc(S(N)(=O)=O)c2)c1` [Example 89, 3′-[(5-chloro-3-methylquinoxalin-2-yl)oxy]biphenyl-3-sulfonamide], under 6.00. Turning to `Cc1nc2c(Cl)cccc2nc1Oc1cccc(-c2cccc(NS(C)(=O)=O)c2)c1` [Example 90, N-{3′-[(5-chloro-3-methylquinoxalin-2-yl)oxy]biphenyl-3-yl}methanesulfonamide], the pIC50 in experiment [2] is under 6.00. In experiment [2], `CNS(=O)(=O)c1cccc(-c2ccc(Oc3nc4cccc(Cl)c4nc3C)cc2)c1` [Example 91, 4′-[(5-chloro-3-methylquinoxalin-2-yl)oxy]-N-methylbiphenyl-3-sulfonamide] showed a pIC50 of 6.03.

On to `Cc1nc2c(Cl)cccc2nc1Oc1ccc(-c2cccc(S(N)(=O)=O)c2)cc1` [Example 92, 4′-[(5-chloro-3-methylquinoxalin-2-yl)oxy]biphenyl-3-sulfonamide], for which the pIC50 in experiment [2] was 5.61.
